Results: PMC9234021 (Cell Reports, 2022)
Read-outs that look alike come from different tables or passages of the source. No end group written: not given here.

Columns and labels:
SARS-CoV-2 [1] = format: cell-based, SARS-CoV-2 isolate USA-WA1/2020; settings: p = 0.0001, three independent experiments in duplicate
SARS-CoV-2 [2] = format: cell-based, SARS-CoV-2 isolate USA-WA1/2020; settings: p = 0.0004, three independent experiments in triplicate
SARS-CoV-2 [3] = format: in vivo, K18-hACE2 C57BL/6J mice; settings: JQ1 50 mg/kg i.p. or ABBV-744 20 mg/kg oral once daily, n = 5 per group
[4] = test system: SARS-CoV-2 nucleocapsid (N) protein; format: in vivo, K18-hACE2 C57BL/6J mice; settings: JQ1 50 mg/kg i.p. or ABBV-744 20 mg/kg oral once daily
[5] = test system: lungs of SARS-CoV-2 infected mice; parameters: species or system K18-hACE2 C57BL/6J mice; settings: mouse, in vivo
SARS-CoV-2 [6] = test system: SARS-CoV-2; parameters: species or system K18-hACE2 C57BL/6J mice; settings: mouse, in vivo
[7] = identical treatment with JQ1 or ABBV-744, H&E
BET proteins = settings: cited from earlier work
SARS-CoV-2 [8] = settings: mouse, in vivo; cited from earlier work
Calu3 cells [9] = format: cell-based
A549 cells = assay: qRT-PCR of poly; format: cell-based
influenza A = settings: cited from earlier work
A549-ACE2 cells = assay: Cell viability; format: cell-based; settings: A549-ACE2, 500 nM, 48 hours, CellTiter-Glo, relative to DMSO
Calu3 cells [10] = assay: Cell viability; format: cell-based; settings: Calu3, 500 nM, 48 hours, CellTiter-Glo, relative to DMSO
[11] = target: BRD4 second bromodomain BD2 (349-460), His-SUMO tag removed (UniProt O60885 349-460, 15N-labeled); assay: NMR titration
[12] = pan-BET inhibitors, no reference given

Row | Molecule | increase in infectious particle production in lungs (SARS-CoV-2 [3]) [fold] | immunohistochemical staining for SARS-CoV-2 N protein in lungs [4] | CCL2 expression in lungs [5] | CXCL9 expression in lungs [5] | CXCL10 expression in lungs [5] | IL1a expression in lungs [5] | IL6 expression in lungs [5] | ISG15 expression in lungs [5] | RIG-I expression in lungs [5] | immune cell infiltration in the lungs (SARS-CoV-2 [6]) | lung inflammation in healthy, uninfected mice [7] | IFNB1 expression (Calu3 cells [9]) | IL6 expression (Calu3 cells [9]) | ISG15 expression (Calu3 cells [9]) | poly(I:C)-mediated induction of IFNB1 (A549 cells) | poly(I:C)-mediated induction of IL6 (A549 cells) | poly(I:C)-mediated induction of ISG15 (A549 cells) | bromodomain specificity (BET proteins; [12]) | Kd [11] [µM] | also measured
1 | CCNC(=O)c1cc2c(-c3cc(C(C)(C)O)ccc3Oc3c(C)cc(F)cc3C)cn(C)c(=O)c2[nH]1 [ABBV-744, N-Ethyl-4-[2-(4-fluoro-2,6-dimethyl-phenoxy)-5-(1-hydroxy-1-methyl-ethyl)phenyl]-6-methyl-7-oxo-1H-pyrrolo[2,3-c]pyridine-2-carboxamide] | 37 | increased | significant decreases | significant decreases | significant decreases | significant decreases | significant decreases | significant decreases | significant decreases | decrease in immune cell infiltration | did not experience lung inflammation | – | – | – | – | – | – | – | – | increase in infectious particle production (SARS-CoV-2 [1]): 3 fold; increase in SARS-CoV-2 viral RNA (SARS-CoV-2 [2]): 3 fold; bromodomain specificity (BET proteins; ABBV-744, ref Sheppard et al., 2020): specifically targets BD2-mediated interactions
2 | Cc1noc(C)c1-c1ccc2[nH]c(=O)n3c2c1OC[C@@H]3c1ccccn1 [INCB054329] | – | – | – | – | – | – | – | – | – | – | – | – | – | – | – | – | – | – | – | lung pathology (SARS-CoV-2 [8]): severe lung pathology; viral RNA in the lungs (SARS-CoV-2 [8]): significant viral RNA in the lungs
3 | Cc1sc2c(c1C)C(c1ccc(Cl)cc1)=N[C@@H](CC(=O)OC(C)(C)C)c1nnc(C)n1-2 [JQ1] | 18 | increased | significant decreases | significant decreases | significant decreases | significant decreases | significant decreases | significant decreases | significant decreases | decrease in immune cell infiltration | did not experience lung inflammation | suppressed | suppressed | suppressed | dampened | dampened | dampened | disrupt BD1- and BD2-mediated interactions | – | transcriptional activation of the antiviral response (influenza A): attenuates transcriptional activation of the antiviral response
4 | Cc1sc2c(c1C)C(c1ccc(Cl)cc1)=N[C@@H](CC(=O)NCCCCCCCCNC(=O)COc1cccc3c1C(=O)N(C1CCC(=O)NC1=O)C3=O)c1nnc(C)n1-2 (stereo partly shown) [dBET6] | – | – | – | – | – | – | – | – | – | – | – | suppressed | suppressed | suppressed | dampened | dampened | dampened | disrupt BD1- and BD2-mediated interactions | – | viability (A549-ACE2 cells): non-toxic; viability (Calu3 cells [10]): non-toxic
5 | VYSRVK(Ac)NLNSS [SARS-CoV-2 E peptide, residues 58-68, acetylated at K63] | – | – | – | – | – | – | – | – | – | – | – | – | – | – | – | – | – | – | 170 ± 60 | –
6 | NVSLVK(Ac)PSFYV [SARS-CoV-2 E peptide, residues 48-58, acetylated at K53] | – | – | – | – | – | – | – | – | – | – | – | – | – | – | – | – | – | – | 610 ± 160 | –
